Experimental data reported in US20120077836A1, “METHODS OF ADMINISTERING (4AR,10AR)-1-N-PROPYL-1,2,3,4,4A,5,10,10A-OCTAHYDROBENZO [G] QUINOLINE-6,7-DIOL AND RELATED COMPOUNDS ACROSS THE ORAL MUCOSA, THE NASAL MUCOSA OR THE SKIN AND PHARMACEUTICAL COMPOSITIONS THEREOF” (priority 2009, published 2012).

What was measured:
MPTP treated marmosets = assay: Anti-parkinsonian effects in MPTP-treated common marmosets; type: in vivo, common marmoset; parameters: disability score (120 min) / disability score (180 min) / disability score (240 min) / disability score (300 min) / disability score (360 min) / disability score (420 min) / disability score (60 min): scale not given here
Experimental: The experiments were conducted using 6 MPTP treated marmosets (2.0 mg/kg daily for up to 5 consecutive days dissolved in sterile 0.9% saline solution). All the animals had previously been treated with L-DOPA (12.5 mg/kg p.o., plus carbidopa 12.5 mg/kg p.o.) administered daily for up to 30 days in order to induce dyskinesia. […] Domperidone was administered 60 min before any of the test compounds. Domperidone is an antidopaminergic drug that suppresses nausea and vomiting. Locomotor activity was assessed using test cages that are comprised of 8 photo-electric switches comprised of 8 infra-red beams which are strategically placed in the cage and interruption of a beam is recorded as one count. […] The assessment of motor disability was performed by a trained observer blinded to the treatment.
The dose chosen for this challenge is at the top of the dose response curve for this drug.

[1] = tested on: rats with unilateral 6-OHDA lesions; details: rat, in vivo, sc
[2] = target: T1, human recombinant D1 receptor (Homo sapiens, UniProt P21728); assay: D1 cAMP assay; type: cell-based; details: read-out: intrinsic activity (efficacy)
T1 construct: expressed in transfected cells
Experimental: The ability of the compounds to either stimulate or inhibit the D1 receptor mediated cAMP formation in CHO cells stably expressing the human recombinant D1 receptor was measured as follows. Cells were seeded in 96-well plates at a concentration of 11000 cells/well 3 days prior to the experiment.

human D2 receptor = target: T2, human D2 receptor (Homo sapiens, UniProt P14416); assay: D2 cAMP assay; type: cell-based; details: read-out: intrinsic activity (efficacy)
T2 construct: expressed in transfected cells; host or cells: CHO cells
Experimental: The ability of the compounds to either stimulate or inhibit the D2 receptor mediated inhibition of cAMP formation in CHO cells transfected with the human D2 receptor was measured as follows. Cells were seeded in 96 well plates at a concentration of 8000 cells/well 3 days prior to the experiment. On the day of the experiment the cells were washed once in preheated G buffer (1 mM MgCl2, 0.9 mM CaCl2, 1 mM IBMX in PBS) and the assay was initiated by addition of 100 micro-1 of a mixture of 1 micro-M quinpirole, 10 microM forskolin and test compound in G buffer (antagonism) or 10 micro-M forskolin and test compound in G buffer (agonism).

[3] = tested on: rats with unilateral 6-OHDA lesions; assay: D1/D2 dissection, rotation response in rats with unilateral 6-OHDA lesions; type: in vivo, rat; details: 6-OHDA rats; for MED (minimum effective dose to induce rotation) / MEDNemonapride (MED to overcome Nemonapride block): dosed SC; for MEDNemonapride (MED to overcome Nemonapride block): * = rotations could not be blocked by SCH23390
Text: Rats weighing 200-250 g were subjected to unilateral 6-OHDA lesions. […] Nemonapride is a D2 antagonist that blocks the D2 receptors, therefore any observed rotations would be dependent upon activity at the D1 receptors.

MPTP/AMPT mouse model = assay: Superiority model, hypomotility in the MPTP/AMPT mouse model; type: in vivo
Experimental: MPTP (1-methyl-4-phenyl-1,2,3,6-tetrahydropyridine) is a neurotoxin that causes permanent symptoms of Parkinson's disease by killing certain neurons in the substantia nigra of the brain. It is used to study the disease in monkeys and mice. […] Various compounds (all dosed subcutaneously) were tested for their ability to reverse the motility deficits produced in this model.

reserpinesed rats = assay: Reversal of reserpine-induced hypomotility in rats; type: in vivo, rat
Experimental: Rats weighing ca. 200 g were treated with reserpine (5 mg/kg subcutaneously as a solution in 20% aqueous solutol for which pH was adjusted to 4 with methanesulfonic acid). […] Group 1: treated with 20% ethanol in 0.7% aqueous sodium chloride subcutaneously.

[4] = tested on: rats with unilateral 6-OHDA lesions; assay: Rotation response in 6-OHDA rats after buccal delivery; type: in vivo, rat
6-OHDA rats = assay: Reversal of L-DOPA-induced dyskinesias in 6-OHDA rats (AIMS); type: in vivo, rat; details: after 7 days L-DOPA/Benserazide priming; once daily days 1-10: L-DOPA/Benserazide 6/15 mg/kg SC; compound 10 0.0013 mg/kg SC; pramipexole […] SC
Text: Animals were observed on Days 1, 3 and 5 and AIMS were scored. The day 5 scores were then used to separate the animals into three groups of 6 animals each. Group 1 continued with daily L-DOPA treatment. […] Treatment continued daily for 10 days and the amount of dyskinesia was scored on days 1, 5, 9 and 10.

[5] = Table 4e direct comparison, AMPT 250 mg/kg SC, apomorphine 1 mg/kg SC, pramipexole 1 mg/kg SC, compound 10 0.030 mg/kg SC, controls: vehicle 509, AMPT/vehicle 2

T2 sequence (P14416 whole entry): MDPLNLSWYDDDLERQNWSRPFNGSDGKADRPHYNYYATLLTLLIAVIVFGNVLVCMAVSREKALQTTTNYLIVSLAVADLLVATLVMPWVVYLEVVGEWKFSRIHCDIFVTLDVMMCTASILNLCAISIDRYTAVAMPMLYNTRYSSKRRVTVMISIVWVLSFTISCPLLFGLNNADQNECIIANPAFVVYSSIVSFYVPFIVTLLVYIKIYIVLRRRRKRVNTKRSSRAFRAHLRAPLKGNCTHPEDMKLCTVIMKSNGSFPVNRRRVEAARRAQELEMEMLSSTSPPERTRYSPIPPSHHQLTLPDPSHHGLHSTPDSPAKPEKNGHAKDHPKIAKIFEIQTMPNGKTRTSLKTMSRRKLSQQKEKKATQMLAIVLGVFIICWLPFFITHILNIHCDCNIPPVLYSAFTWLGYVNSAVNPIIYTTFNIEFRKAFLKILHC
T1 sequence (P21728 whole entry): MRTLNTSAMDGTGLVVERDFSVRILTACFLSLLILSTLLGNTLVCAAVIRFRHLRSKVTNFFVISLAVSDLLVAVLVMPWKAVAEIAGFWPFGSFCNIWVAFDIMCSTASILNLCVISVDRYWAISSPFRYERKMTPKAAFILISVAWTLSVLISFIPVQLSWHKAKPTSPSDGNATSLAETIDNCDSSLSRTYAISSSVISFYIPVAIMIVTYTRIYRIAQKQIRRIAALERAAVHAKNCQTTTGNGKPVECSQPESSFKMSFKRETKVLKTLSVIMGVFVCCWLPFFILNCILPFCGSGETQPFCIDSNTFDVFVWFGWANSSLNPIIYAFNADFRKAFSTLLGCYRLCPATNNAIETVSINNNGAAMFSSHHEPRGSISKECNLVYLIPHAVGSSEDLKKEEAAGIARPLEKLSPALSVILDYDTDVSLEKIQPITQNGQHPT

SMILES: N[C@@H](Cc1ccc(O)c(O)c1)C(=O)O [L-DOPA, reference compound]
- disability score (60 min) (MPTP treated marmosets; 12.5 mg/kg PO): 10.0
- disability score (120 min) (MPTP treated marmosets; 12.5 mg/kg PO): 2.0
- disability score (180 min) (MPTP treated marmosets; 12.5 mg/kg PO): 1.8
- disability score (240 min) (MPTP treated marmosets; 12.5 mg/kg PO): 3.2
- disability score (300 min) (MPTP treated marmosets; 12.5 mg/kg PO): 5.0
- disability score (360 min) (MPTP treated marmosets; 12.5 mg/kg PO): 9.7
- disability score (420 min) (MPTP treated marmosets; 12.5 mg/kg PO): 11.0
- effect on locomotor activity and motor disability (MPTP treated marmosets; L-DOPA 12.5 mg/kg p.o., compound 10 0.001 or 0.01 mg/kg SC): increased locomotor activity and reversed motor disability
- dyskinesia score (AIMS) [1]: about 65

SMILES: CN1CCc2cccc3c2[C@H]1Cc1ccc(O)c(O)c1-3 [apomorphine, reference compound]
- Emax [2]: 86%
- Emax (human D2 receptor): 100%
- MED (minimum effective dose to induce rotation) [3]: 0.010 mg/kg
- MEDNemonapride (MED to overcome Nemonapride block) [3]: 0.030 mg/kg
- reversal of motility deficits (MPTP/AMPT mouse model; MPTP/AMPT mice, all dosed subcutaneously): restored locomotion in the mice in a dose-dependent manner
- activity count (0.5-1.5 h) (MPTP/AMPT mouse model; Table 4b, AMPT 250 mg/kg SC at -1.5 h, 1.0 mg/kg SC, controls: vehicle 694, AMPT/vehicle 1): 912
- activity count (0.5-1.5 h) (MPTP/AMPT mouse model; [5]): 904
- reversal of reserpine-induced hypomotility (reserpinesed rats; administered subcutaneously): reversed the reserpine-induced hypomotility
- activity count (reserpinesed rats; reserpine 5 mg/kg SC 23-24 h before, apomorphine 1 mg/kg SC, compound 10 0.01 mg/kg SC, over 3 hours, controls: vehicle 486, reserpine/vehicle 17): 440
- mean number of rotations over 3 h ([4]; apomorphine 0.1 mg/kg SC, compound 10 0.01 mg/kg buccally): 1123
- induction of rotation ([4]; apomorphine subcutaneous, compound 10 buccal): induced rotations
- dyskinesia score (AIMS) [1]: about 65

SMILES: CC(C)C[C@H]1C(=O)N2CCC[C@H]2[C@]2(O)O[C@](NC(=O)[C@@H]3C=C4c5cccc6[nH]c(Br)c(c56)C[C@H]4N(C)C3)(C(C)C)C(=O)N12 [bromocriptine]
- activity count (0.5-1.5 h) (MPTP/AMPT mouse model; Table 4d, AMPT 250 mg/kg SC, 1 mg/kg SC, controls: vehicle 336, AMPT/vehicle 16): 25
- activity count (0.5-1.5 h) (MPTP/AMPT mouse model; Table 4d, AMPT 250 mg/kg SC, 5 mg/kg SC): 17
- activity count (0.5-1.5 h) (MPTP/AMPT mouse model; Table 4d, AMPT 250 mg/kg SC, 10 mg/kg SC): 36

SMILES: CCCN[C@H]1CCc2nc(N)sc2C1 [pramipexole]
- MED (minimum effective dose to induce rotation) [3]: 0.1 mg/kg
- MEDNemonapride (MED to overcome Nemonapride block) [3]: 1.0 mg/kg
- mean AIM score (days 1, 5, 9, 10) (6-OHDA rats): 58
- activity count (0.5-1.5 h) (MPTP/AMPT mouse model; [5]): 176

SMILES: CCCN(CCc1cccs1)[C@H]1CCc2c(O)cccc2C1 [rotigotine]
- D1 component in rotation model ([3]; SC): could not be observed
- MED (minimum effective dose to induce rotation) [3]: 0.030 mg/kg
- MEDNemonapride (MED to overcome Nemonapride block) [3]: 0.30 mg/kg
